Starred links: 1 amine or outer side, 2 acyl side, 3 side chain; linkers in the order of their positions; H or OH if unused. Positions of bridges follow the written chain, without caps; N, C: chain ends. Non-standard residues stand in square brackets, D forms with d. Residues, ends and D or L forms follow the SMILES beside them. X2 = N=C(N)NCCC[C@@H](C(=O)[C@H](CCC(N)=O)N[*:1])C(=O)[*:2]; X3 = O=C(NC(=O)[*:2])[C@H](CO)N[*:1]
Assays:
Neutrophil elastase = biological target: T1, Neutrophil elastase (Homo sapiens, UniProt P08246); experiment: Inhibition of human leukocyte elastase by substrate hydrolysis based fluorescence assay; settings: read-out: Ki
T1 sequence (P08246 whole entry): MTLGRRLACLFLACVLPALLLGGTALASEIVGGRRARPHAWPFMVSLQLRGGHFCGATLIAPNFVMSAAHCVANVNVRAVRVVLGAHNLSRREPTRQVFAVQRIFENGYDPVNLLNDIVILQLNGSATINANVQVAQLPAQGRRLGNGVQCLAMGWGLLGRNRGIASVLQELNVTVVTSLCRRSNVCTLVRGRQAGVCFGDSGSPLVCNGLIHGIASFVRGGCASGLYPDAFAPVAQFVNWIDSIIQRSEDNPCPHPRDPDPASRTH

[1] = Inhibition of tryptase by substrate hydrolysis based fluorescence assay
[2] = Inhibition of trypsin by substrate hydrolysis based fluorescence assay

| Structure (SMILES) | Ki (Neutrophil elastase) [nM] | Ki [1] [nM] | Ki [2] [nM] |
| --- | --- | --- | --- |
| CC[C@H](C)[C@@H]1NC(=O)[C@@H]2CSSC[C@@H]3NC(=O)[C@H](C(C)C)NC(=O)CNC(=O)CNC(=O)[C@H](CC(=O)O)NC(=O)[C@H](CO)NC(=O)CNC(=O)[C@H](CO)NC(=O)CNC(=O)[C@@H]4CSSC[C@H](NC(=O)[C@H](CC(=O)O)NC(=O)[C@H](CO)NC(=O)[C@H](CC(=O)O)NC(=O)[C@H](CCCNC(=N)N)NC(=O)[C@H](CCCNC(=N)N)NC(=O)[C@H](CSSC[C@H](NC1=O)C(=O)N[C@@H](CCCNC(=N)N)C(=O)NCC(=O)N[C@@H](CC(N)=O)C(=O)NCC(=O)N[C@@H](Cc1ccc(O)cc1)C(=O)N4)NC(=O)[C@@H](CCCNC(=N)N)C(=O)[C@H](CCC(N)=O)NC(=O)[C@H](CC(C)C)NC(=O)[C@@H]1CCCN1C(=O)[C@@H](C(C)C)NC(=O)[C@H](C)NC3=O)C(=O)N1CCC[C@H]1C(=O)NCC(=O)N[C@@H](C)C(=O)N2 | 500 | > 50000 |  |
| CC[C@H](C)[C@@H]1NC(=O)[C@H](C)NC(=O)[C@@H]2CCCN2C(=O)[C@@H]2CSSC[C@@H]3NC(=O)[C@H](C)NC(=O)CNC(=O)[C@@H]4CCCN4C(=O)[C@@H]4CSSC[C@H](NC(=O)[C@H](Cc5ccc(O)cc5)NC(=O)CNC(=O)[C@H](CC(N)=O)NC(=O)CNC(=O)[C@H](CCCNC(=N)N)NC(=O)[C@H](CSSC[C@H](NC(=O)[C@@H](CCCNC(=N)N)C(=O)[C@H](CCC(N)=O)NC(=O)[C@H](CC(C)C)NC1=O)C(=O)N[C@@H](CCCNC(=N)N)C(=O)N[C@@H](CCCNC(=N)N)C(=O)N[C@@H](CC(=O)O)C(=O)N[C@@H](CO)C(=O)N[C@@H](CC(=O)O)C(=O)N4)NC(=O)[C@H]([C@@H](C)CC)NC3=O)C(=O)NCC(=O)N[C@@H](CO)C(=O)NCC(=O)N[C@@H](CO)C(=O)N[C@@H](CC(=O)O)C(=O)NCC(=O)NCC(=O)N[C@@H](C(C)C)C(=O)N2 (cyclo(ACICRGNGYCGSGSDGGVCPAIL[X2]CRRDSDCPG); disulfide 2-19, 4-25, 10-31) | 32 | > 50000 | > 0.109 |
| CC[C@H](C)[C@@H]1NC(=O)[C@@H]2CSSC[C@@H]3NC(=O)[C@H](C(C)C)NC(=O)CNC(=O)CNC(=O)[C@H](CC(=O)O)NC(=O)[C@H](CO)NC(=O)CNC(=O)[C@H](CO)NC(=O)CNC(=O)[C@@H]4CSSC[C@H](NC(=O)[C@H](CC(=O)O)NC(=O)[C@H](CO)NC(=O)[C@H](CC(=O)O)NC(=O)[C@H](CCCNC(=N)N)NC(=O)[C@H](CCCNC(=N)N)NC(=O)[C@H](CSSC[C@H](NC1=O)C(=O)N[C@@H](CCCNC(=N)N)C(=O)NCC(=O)N[C@@H](CC(N)=O)C(=O)NCC(=O)N[C@@H](Cc1ccc(O)cc1)C(=O)N4)NC(=O)[C@@H](CCCNC(=N)N)C(=O)[C@H](CCC(N)=O)NC(=O)[C@H](CC(C)C)NC(=O)[C@@H]1CCCN1C(=O)[C@H](C(C)C)NC(=O)[C@@H]1CCCN1C3=O)C(=O)N1CCC[C@H]1C(=O)NCC(=O)N[C@@H](C)C(=O)N2 (cyclo(ACICRGNGYCGSGSDGGVCPVPL[X2]CRRDSDCPG); disulfide 2-19, 4-25, 10-31) | 520 | > 50000 |  |
| CC[C@H](C)[C@@H]1NC(=O)[C@@H]2CSSC[C@@H]3NC(=O)[C@H](C(C)C)NC(=O)CNC(=O)NC(=O)[C@H](CO)NC(=O)CNC(=O)[C@H](CO)NC(=O)CNC(=O)[C@@H]4CSSC[C@H](NC(=O)[C@H](CC(=O)O)NC(=O)[C@H](CO)NC(=O)[C@H](CC(=O)O)NC(=O)[C@H](CCCNC(=N)N)NC(=O)[C@H](CCCNC(=N)N)NC(=O)[C@H](CSSC[C@H](NC1=O)C(=O)N[C@@H](CCCNC(=N)N)C(=O)NCC(=O)N[C@@H](CC(N)=O)C(=O)NCC(=O)N[C@@H](Cc1ccc(O)cc1)C(=O)N4)NC(=O)[C@@H](CCCNC(=N)N)C(=O)[C@H](CCC(N)=O)NC(=O)[C@H](CC(C)C)NC(=O)[C@H]([C@@H](C)CC)NC(=O)[C@H](CCCCN)NC(=O)[C@@H]1CCCN1C3=O)C(=O)N1CCC[C@H]1C(=O)NCC(=O)N[C@@H](C)C(=O)N2 (cyclo(ACICRGNGYCGSG[X3]GVCPKIL[X2]CRRDSDCPG); disulfide 2-17, 4-23, 10-29) |  | 600 | 4.3 |

The next molecules have a lower Ki [1] than those just listed; values first:

| Ki (Neutrophil elastase) [nM] | Ki [1] [nM] | Ki [2] [nM] | Structure (SMILES) |
| --- | --- | --- | --- |
|  | 110 | 99 | CC[C@H](C)[C@@H]1NC(=O)[C@H](CCCCN)NC(=O)[C@@H]2CCCN2C(=O)[C@@H](NC(=O)[C@@H](N)C(C)C)CSSC[C@@H]2NC(=O)CNC(=O)[C@H](C)NC(=O)[C@H](CC(C)C)NC(=O)[C@@H]3CSSC[C@@H](C(=O)NCC(=O)N[C@@H](CO)C(=O)NCC(=O)O)NC(=O)[C@H](Cc4ccc(O)cc4)NC(=O)CNC(=O)[C@H](CC(N)=O)NC(=O)CNC(=O)[C@H](CCCNC(=N)N)NC(=O)[C@H](CSSC[C@H](NC(=O)[C@@H](CCCNC(=N)N)C(=O)[C@H](CCC(N)=O)NC(=O)[C@H](CC(C)C)NC1=O)C(=O)N[C@@H](CCCNC(=N)N)C(=O)N[C@@H](CCCNC(=N)N)C(=O)N[C@@H](CC(=O)O)C(=O)N[C@@H](CO)C(=O)N[C@@H](CC(=O)O)C(=O)N3)NC(=O)[C@H](CC(C)C)NC2=O (H-VCPKIL[X2]CRRDSDCLAGCLCRGNGYCGSG-OH; disulfide 2-18, 8-20, 14-26) |
|  | 33 | 48 | CC[C@H](C)[C@@H]1NC(=O)[C@H](CCCCN)NC(=O)[C@@H]2CCCN2C(=O)[C@@H]2CSSC[C@@H]3NC(=O)CNC(=O)[C@H](C)NC(=O)[C@H](CC(C)C)NC(=O)[C@@H]4CSSC[C@H](NC(=O)[C@H](Cc5ccc(O)cc5)NC(=O)CNC(=O)[C@H](CC(N)=O)NC(=O)CNC(=O)[C@H](CCCNC(=N)N)NC(=O)[C@H](CSSC[C@H](NC(=O)[C@@H](CCCNC(=N)N)C(=O)[C@H](CCC(N)=O)NC(=O)[C@H](CC(C)C)NC1=O)C(=O)N[C@@H](CCCNC(=N)N)C(=O)N[C@@H](CCCNC(=N)N)C(=O)N[C@@H](CC(=O)O)C(=O)N[C@@H](CO)C(=O)N[C@@H](CC(=O)O)C(=O)N4)NC(=O)[C@H](CC(C)C)NC3=O)C(=O)NCC(=O)N[C@@H](CO)C(=O)NCC(=O)N[C@@H](C(C)C)C(=O)N2 (cyclo(AGCLCRGNGYCGSGVCPKIL[X2]CRRDSDCL); disulfide 3-16, 5-22, 11-28) |
|  | 28 | 8.8 | CC[C@H](C)[C@@H]1NC(=O)[C@H](CCCNC(=N)N)NC(=O)[C@@H]2CCCN2C(=O)[C@@H]2CSSC[C@@H]3NC(=O)CNC(=O)[C@H](C)NC(=O)[C@H](CC(C)C)NC(=O)[C@@H]4CSSC[C@H](NC(=O)[C@H](Cc5ccc(O)cc5)NC(=O)CNC(=O)[C@H](CC(N)=O)NC(=O)CNC(=O)[C@H](CCCNC(=N)N)NC(=O)[C@H](CSSC[C@H](NC(=O)[C@@H](CCCNC(=N)N)C(=O)[C@H](CCC(N)=O)NC(=O)[C@H](CC(C)C)NC1=O)C(=O)N[C@@H](CCCNC(=N)N)C(=O)N[C@@H](CCCNC(=N)N)C(=O)N[C@@H](CC(=O)O)C(=O)N[C@@H](CO)C(=O)N[C@@H](CC(=O)O)C(=O)N4)NC(=O)[C@H](CC(C)C)NC3=O)C(=O)NCC(=O)N[C@@H](CO)C(=O)NCC(=O)N[C@@H](C(C)C)C(=O)N2 (cyclo(AGCLCRGNGYCGSGVCPRIL[X2]CRRDSDCL); disulfide 3-16, 5-22, 11-28) |
